How the values were obtained:
[1] = molecular target: KSHV Pr dimer (Human herpesvirus 8 type P, UniProt Q2HRB6, S204G); assay type: binding
[2] = test system: p53-MDM2; settings: cited from earlier work
[3] = molecular target: T1, KSHV Pr (Human herpesvirus 8 type P, UniProt Q2HRB6, S204G); assay: Inhibition kinetics; assay type: biochemical, human Kaposi's sarcoma-associated herpesvirus (KSHV)
[4] = Dynamic light scattering for particle formation; assay type: physicochemical
[5] = molecular target: wt KSHV Pr (Human herpesvirus 8 type P, UniProt Q2HRB6, S204G); assay type: binding; settings: 23 μM 13C-Met wt KSHV Pr, 1 molar equivalence inhibitor (24 μM)
[6] = molecular target: T1, KSHV Pr; assay type: biochemical, human Kaposi's sarcoma-associated herpesvirus (KSHV); settings: substitution from meta position to para or ortho
[7] = 1 -10 μM concentration range of DD2

## O=C(O)c1ccc(NC(=O)c2cccc(CC3CCCCC3)c2)c(Cc2ccccc2)c1 [Compound 1]
[1]; data not shown
  results in size exclusion chromatography and HSQC experiments compared with DD2: produced similar results
[2]
  inhibition of the interaction of p53-MDM2: not found to inhibit

## O=C(O)c1ccc(NC(=O)c2cccc(CC3CCCCC3)n2)c(Cc2ccccc2)c1 [Compound 2]
[3]; [7]
  decrease in Vmax: 3 fold
  increase in KM: 2.5 fold
[3]; Lineweaver–Burk analysis
  type of inhibition: mixed-type inhibitor
[4]
  particle formation by dynamic light scattering: did not show evidence of particle formation
[1]; 5 μM wt KSHV Pr pre-incubated with 30 μM compound
  elution profile of KSHV Pr (dimerization state): eluted predominantly as a monomer
[5]
  M197-dimer peak in 1H-13C HSQC: broadens beyond detection

## O=C(O)c1ccc(NC(=O)c2ccc(CC3CCCCC3)cc2)c(Cc2ccccc2)c1 [Compound 4]
[6]
  effect of moving the cyclohexylmethyl side chain on inhibition (SAR): diminished inhibition

## O=C(O)c1ccc(NC(=O)c2ccccc2CC2CCCCC2)c(Cc2ccccc2)c1 [Compound 5]
[6]
  effect of moving the cyclohexylmethyl side chain on inhibition (SAR): diminished inhibition

From PMC2752665 (Nature chemical biology, 2009)
